In patent US20250152660A1, “SCO-spondin-derived polypeptides for treating biological barriers dysfunction” (AXOLTIS PHARMA, priority 2021, published 2025):
“And” between values parts separate entries of the source, which are not always exact repeats. Equal values may be shown once. Bridges are numbered along the chain shown (N, C = ends). Where no end group is shown, it is not given here.

Tests used:
[1] = test system: mouse brain endothelial bEnd.3 cells; experiment: Transendothelial electrical resistance (TEER) of mouse brain endothelial cell monolayer on Transwell inserts; format: cell-based; settings: bEnd.3
Description: To determine the effect of NX218 on transendothelial electrical resistance (TEER) of mouse brain endothelial cells, cells were grown on a semi-permeable membrane inserted in culture wells in presence or absence of NX218 and the TEER was recorded using electrodes placed on each side of the membrane and a resistance meter.
Mouse brain endothelial cells (bEnd.3, American Type Culture Collection) were cultured in Dulbecco's modified Eagle's Medium (DMEM) supplemented with 10% fetal bovine serum (FBS) and 2 mM sodium pyruvate in a 5% CO2 incubator at 37° C.
bEnd.3 cells were grown on 6.5-mm-diameter, 0.4-μm-pore, polyester membrane HTS Transwell inserts (5×10^4 cells per well containing 200 μL and 800 μL of culture medium in the apical and basolateral compartments respectively). Three days after seeding, cells were treated with vehicle or NX218 (1, 10 and 100 μM) for 1, 2 or 3 days. TEER values were measured using an EVOM resistance meter fitted with “chopstick” electrodes. One electrode was placed in the apical chamber and another one in the basolateral chamber. Before measurements, chambers were replaced with fresh medium.

[2] = test system: primary human umbilical vein endothelial cells (HUVEC); experiment: Transendothelial electrical resistance (TEER) of primary human umbilical vein endothelial cell monolayer; format: cell-based; settings: for TEER change relative to control, Average: average of N1-N9, control = 100; for TEER change relative to control: control average = 100, individual replicates N1-N9
Description: To determine the effect of NX218 on transendothelial electrical resistance (TEER) of primary human umbilical vein endothelial cells (HUVEC), cells were grown on a semi-permeable membrane inserted in culture wells in presence or absence of NX218 and the TEER was recorded using electrodes placed on each side of the membrane and a resistance meter.
HUVEC (PromoCell, C-12208) were cultured in EBM-2 basal media supplemented with bullet kit reagents (both from Lonza) in a 5% CO2 incubator at 37° C.
HUVEC were grown on 6.5-mm-diameter, 0.4-μm-pore, polyester membrane HTS Transwell inserts (5×10^4 cells per well containing 200 μL and 800 μL of culture medium in the apical and basolateral compartments respectively). Two days after seeding, cells were treated with vehicle or NX218 (1, 10 and 100 μM) for 1 or 3 days. TEER values were measured using an EVOM resistance meter fitted with “chopstick” electrodes. One electrode was placed in the apical chamber and another one in the basolateral chamber. Before measurements, chambers were replaced with fresh medium.

## W-S-G-W-S-S-C-S-R-S-C-G (WSGWSSCSRSCG; disulfide 7-11 (inferred)) [NX218]
[1]; NX218 1 μM, 24 hours, average of N1-N6, control = 1
  TEER change relative to control, Average: 1.095
[1]; NX218 1 μM, 24 hours, individual replicates N1-N6
  TEER change relative to control: 1.096 and 1.109 and 0.9761 and 1.051 and 1.197 and 1.139
[1]; NX218 1 μM, 48 hours, average of N1-N9, control = 1
  TEER change relative to control, Average: 1.089
[1]; NX218 1 μM, 48 hours, individual replicates N1-N9
  TEER change relative to control: 1.149 and 1.219 and 1.194 and 0.9888 and 1.006 and 1.056 and 0.9841 and 1.196 and 1.011
[1]; NX218 1 μM, 72 hours, average of N1-N9, control = 1
  TEER change relative to control, Average: 0.9718
[1]; NX218 1 μM, 72 hours, individual replicates N1-N9
  TEER change relative to control: 0.9966 and 1.022 and 1.007 and 1.003 and 0.9525 and 0.9474 and 0.9315 and 0.9406 and 0.9452
[1]; NX218 10 μM, 24 hours, average of N1-N6, control = 1
  TEER change relative to control, Average: 1.128
[1]; NX218 10 μM, 24 hours, individual replicates N1-N6
  TEER change relative to control: 1.027 and 1.068 and 1.072 and 1.178 and 1.212 (2×)
[1]; NX218 10 μM, 48 hours, average of N1-N9, control = 1
  TEER change relative to control, Average: 1.203
[1]; NX218 10 μM, 48 hours, individual replicates N1-N9
  TEER change relative to control: 1.219 (2×) and 1.334 and 1.016 (2×) and 1.053 and 1.28 and 1.381 and 1.312
[1]; NX218 10 μM, 72 hours, average of N1-N9, control = 1
  TEER change relative to control, Average: 1.196
[1]; NX218 10 μM, 72 hours, individual replicates N1-N9
  TEER change relative to control: 1.27 and 1.255 and 1.239 and 1.187 (3×) and 1.151 and 1.146 (2×)
[1]; NX218 100 μM, 24 hours, average of N1-N6, control = 1
  TEER change relative to control, Average: 1.307
[1]; NX218 100 μM, 24 hours, individual replicates N1-N6
  TEER change relative to control: 1.218 and 1.283 and 1.142 and 1.454 and 1.373 and 1.37
[1]; NX218 100 μM, 48 hours, average of N1-N9, control = 1
  TEER change relative to control, Average: 1.461
[1]; NX218 100 μM, 48 hours, individual replicates N1-N9
  TEER change relative to control: 1.547 and 1.404 and 1.498 and 1.223 and 1.284 and 1.173 and 1.725 and 1.72 and 1.571
[1]; NX218 100 μM, 72 hours, average of N1-N9, control = 1
  TEER change relative to control, Average: 1.446
[1]; NX218 100 μM, 72 hours, individual replicates N1-N9
  TEER change relative to control: 1.467 and 1.553 and 1.624 and 1.436 and 1.457 and 1.584 and 1.237 and 1.306 and 1.347
[2]; NX218 1 μM, 24 hours
  TEER change relative to control, Average: 104
  TEER change relative to control: 101.3 (3×) and 95.36 (2×) and 89.4 and 119.2 (2×) and 113.2
[2]; NX218 1 μM, 72 hours
  TEER change relative to control, Average: 101.1
  TEER change relative to control: 113.1 (2×) and 97.71 and 87.43 and 82.29 and 92.57 and 123.4 and 128.6 and 72
[2]; NX218 10 μM, 24 hours
  TEER change relative to control, Average: 119.2
  TEER change relative to control: 101.3 (2×) and 119.2 and 149 (2×) and 143 and 89.4 and 113.2 and 107.3
[2]; NX218 10 μM, 72 hours
  TEER change relative to control, Average: 109.7
  TEER change relative to control: 97.71 and 118.3 and 123.4 and 87.43 and 102.9 and 108 (2×) and 128.6 and 113.1
[2]; NX218 100 μM, 24 hours
  TEER change relative to control, Average: 158.9
  TEER change relative to control: 137.1 and 149 and 143 (2×) and 172.8 and 184.8 (2×) and 155 and 160.9
[2]; NX218 100 μM, 72 hours
  TEER change relative to control, Average: 131.4
  TEER change relative to control: 144 (2×) and 138.9 and 108 (2×) and 123.4 and 133.7 and 154.3 and 128.6
[2]; NX218 at 100 μM for 1 or 3 days, compared with vehicle
  Resistance (TEER), result in words: significantly increased in a dose dependent manner
